Laboratory results as given in PMC2652713, “Molecular Blocking of CD23 Supports Its Role in the Pathogenesis of Arthritis” (PLoS ONE, 2009).

Columns and labels:
[1] = tested on: human CD23+ monocyte-derived macrophages; assay: Inflammatory gene transcription array in CD23-activated macrophages of healthy donors; format: cell-based
Experimental: Figure 3 Inhibition of inflammatory gene transcription by p30A in CD23-stimulated macrophages. Human CD23^+ monocyte-derived macrophages were incubated with cross-linking CD23-McAb (20 µg/ml) alone or following 1 h pre-incubation with 10 µg/ml of p30A. Controls, activated cells with/without p30A pre-incubation are figured. IL-1β, TNF-α and actin (ACT) mRNA location are indicated by arrows. Shown is one representative experiment out of three. TEXT PRINTED IN THE PICTURE: p30A: Expressed Genes: 28 / 114 (Activated + p30A)
Monocytes or macrophages were activated through CD23 pathway: while monocytes/macrophages from RA patients express CD23, monocytes from healthy donors must be pre-activated to express surface CD23 as described. This pre-activation was obtained by incubation of healthy monocytes with recombinant human IL-4 (20 ng/ml) during 48 h at 37°C; After washing, all cell populations were tested by flow cytometry for their surface CD23 expression (>80% CD23^+) and then incubated in the presence of cross-linking CD23-MAb (clones 135 or DM2, IgG1k, 20 µg/ml) during 48–72 h, or IgE and anti-IgE as described, [17]. When indicated, peptides were added to the cells 2 h prior to their activation. Cells supernatants were then analyzed for their nitric oxide content (see below) and for the presence of cytokines: levels of TNF-α and IL-6 were determined in duplicates for each sample by a specific ELISA (R&D, Paris, France) while levels of IL-1β, IL-8 and IL-10 was determined using FlowCytomix Human Th1/Th2 Kit as recommended (Bender Medsystems, Vienna, Austria).
Following cultures, total RNA was extracted using RNeasy kit (Qiagen, Hilden, Germany). Synthesis, purification and hybridization of biotin-labeled cRNA (6 µg) to custom array membranes were performed according to manufacturer's recommendations (Oligo GEArray® Human Inflammatory Cytokines and Receptors Microarray, ref OHS-011, Superarray Bioscience, Frederick, MD). After local background subtraction, average signal intensity from duplicate spots was compared to values obtained for housekeeping genes using AlphaImager HP automatic image capture software (Alpha-Innotec, San Leandro, CA). For each gene, modulation was defined as the relative expression value for stimulated vs. control sample.

[2] = tested on: adjuvant-induced arthritis in rats; assay: Adjuvant-induced arthritis (AIA) clinical score in rats; format: in vivo, rat, Female Lewis
Experimental: Figure 6 Inhibition of in vitro and in vivo inflammatory responses in rats by p30A peptide. (A) Rat peritoneal macrophages were activated via CD23 antigens with/without p30A, L-NIL or pCtl. Cell supernatants were collected 48 h later and nitrite levels were quantified. Values are mean±s.d. of cells from 3 different rats. (B) Cumulative clinical score/rat obtained following 50 days post-immunization in all groups. AIA rats were treated either after or before (d0) the onset of symptoms. Treatment consisted of p30A, hydrocortisone (HC, 30 mg/rat)) or pCtl (100 mg/rat). Shown are means of cumulative score/rat±s.d. from 5 (HC) or 8 rats (other conditions). (C) Evolution of arthritis severity scores of adjuvant-induced arthritis (AIA) in rats treated with intracutaneous p30A or pCtl (100 mg/rat) or hydrocortisone (after the onset of clinical signs as illustrated by arrows (means from 8 rats, s.e.m.<20%). (D) Histopathologic analysis confirm p30A ability to decrease all components of AIA lesions: pannus formation and inflammation of the synovium (P), deformity of joint and bones (asterix), bone remodeling and destruction (arrowhead), bone neoformation (arrows) and cartilage destruction.
All animal procedures were performed in strict accordance with the guidelines issued by the European Economic Community “86/609”. Female Lewis rats (Janvier, Le Genest St Isle, France) were housed under standard laboratory conditions with free access to food and water. The temperature was kept at 22±2°C and a 12 hour light/dark schedule was maintained.
Adjuvant arthritis was induced in six week-old animals by subcutaneous injection at the base of the tail of 300 µl containing 1.8 mg of inactivated Mycobacterium butyricum (Difco Laboratories, Detroit, MI) diluted in emulsion of 8 ml Vaseline, 1 ml polysorbate 80, and 1 ml PBS (Phosphate Buffer Saline, Eurobio). Rats were boosted one week later following the same procedure. Observation was conducted for up to 50 days following immunization for clinical signs of arthritis. Rats were divided in different groups of 8 rats. Groups were treated with five injections (every 2 days) of either p30A (10, 50 or 100 mg in a PBS solution), pCtl, hydrocortisone (Sigma Aldrich) or PBS solution. Injections were initiated two days after the appearance of first arthritic symptoms (therapeutic) or on the first day of immunization (preventive). Evaluation of AIA severity was performed by two independent observers who where not aware of the study protocol. The severity of AIA in each paw was quantified daily using an ordinal clinical score measurement from 0 to 4 as follows: no signs of inflammation ( = 0); swelling alone (>2 fold paw diameter) ( = 1) or swelling/immobility ( = 2) of one paw; swelling ( = 3) or swelling/immobility ( = 4) of two paws. Weight evolution of rats was measured daily. Rats were sacrificed 50 days after AIA induction. Peritoneal macrophages were collected and incubated in culture medium alone for 48 h. Quantification of TNF-α and IL-1β in rat cell supernatants was performed using appropriate ELISA kits and according to manufacturer's recommendations (Biosource, Montrouge, France).

[3] = tested on: adjuvant-induced arthritis in rats; assay: Histopathologic analysis of AIA lesions; format: in vivo, rat, Female Lewis; conditions: 50 days after AIA induction
Experimental: Figure 6 Inhibition of in vitro and in vivo inflammatory responses in rats by p30A peptide. (A) Rat peritoneal macrophages were activated via CD23 antigens with/without p30A, L-NIL or pCtl. Cell supernatants were collected 48 h later and nitrite levels were quantified. Values are mean±s.d. of cells from 3 different rats. (B) Cumulative clinical score/rat obtained following 50 days post-immunization in all groups. AIA rats were treated either after or before (d0) the onset of symptoms. Treatment consisted of p30A, hydrocortisone (HC, 30 mg/rat)) or pCtl (100 mg/rat). Shown are means of cumulative score/rat±s.d. from 5 (HC) or 8 rats (other conditions). […]
Adjuvant arthritis was induced in six week-old animals by subcutaneous injection at the base of the tail of 300 µl containing 1.8 mg of inactivated Mycobacterium butyricum (Difco Laboratories, Detroit, MI) diluted in emulsion of 8 ml Vaseline, 1 ml polysorbate 80, and 1 ml PBS (Phosphate Buffer Saline, Eurobio). […] The severity of AIA in each paw was quantified daily using an ordinal clinical score measurement from 0 to 4 as follows: no signs of inflammation ( = 0); swelling alone (>2 fold paw diameter) ( = 1) or swelling/immobility ( = 2) of one paw; swelling ( = 3) or swelling/immobility ( = 4) of two paws. Weight evolution of rats was measured daily. […]

rat CD23+ macrophages = assay: IgE-mediated activation of rat CD23+ macrophages; format: cell-based
Experimental: Peptides were added one hour prior to cell activation.

## FHENWPS [p30A]
[1]; CD23-activated macrophages of healthy donors
  inhibition of expression of inflammatory mRNAs: inhibits the expression of most of the above mRNAs
[1]; activated cells + p30A
  expressed mRNAs: Chemokine Receptors: CCR1, CCR5, CCR7, CXCR4
  expressed mRNAs: Chemokines Other subfamily members: BCL6, BLR1, C3
  expressed mRNAs: Chemokines Subfamily A (Cys-Cys): CCL15, CCL17, CCL18, CCL19, CCL3, CCL4, CCL5
  expressed mRNAs: Interleukins and their Receptors: IL10RA, IL10RB, IL11RA, IL17R, IL1R1, IL1R2, IL2RA, IL2RG, IL6R
  expressed mRNAs: Other related genes: LTB4R, MIF
  expressed mRNAs: TNF Ligands and Receptors: LTA (LT- α), LTB (LT-β), TNFRSF1B (TNFR2)
[1]; activated cells + p30A (10 µg/ml, 1 h pre-incubation; CD23-McAb 20 µg/ml), comparators: non activated cells 14, activated cells 53
  number of expressed genes detected/114: 28
[2]; AIA rats, 50 days post-immunization, five intracutaneous doses every two days, 8 rats, p<0,0001
  cumulative clinical score vs non-treated rats: significantly improved the clinical course of AIA rats
[2]; AIA rats, hydrocortisone 30 mg/rat
  decrease of arthritic scores compared with hydrocortisone: more efficient than hydrocortisone in decreasing arthritic scores
[2]; AIA rats, p30A 10, 50 or 100 mg, five injections every 2 days
  arthritic signs, dose-dependence: decreased arthritic signs in rats in a dose-dependent manner
[2]; AIA rats, therapeutic or p30A-d0, p<0.0002
  effectiveness after disease onset or for prevention: effective either after disease onset or for the prevention
[2]; p30A administered prior to disease induction
  prevention of severe clinical signs: prevented the development of severe clinical signs in rats
[2]; rat model of arthritis
  clinical scores and bone destruction: ameliorates clinical scores and prevent bone destruction in a dose dependent manner
[2]; rat model of chronic arthritis, indirectly supports stability of p30A in vivo
  duration of dose-dependent effect: > one month
[3]
  components of AIA arthritic lesions (pannus formation and synovium inflammation, joint/bone deformity, bone remodeling and destruction, bone neoformation, cartilage destruction): significantly decreased all components of AIA arthritic lesions
Rat CD23+ macrophages
  IgE-mediated activation of rat CD23+ macrophages: decreased IgE-mediated activation of both human and rat CD23^+ macrophages
CD23
  side agonistic effect: absence of side agonistic effect
